{"source": "patent US20220288091A1", "about": "“Method for Improving Insulin Sensitivity” (priority 2019, published 2022)", "origin": "cited, not measured here", "conditions_in_all_cases": "Miner et al.; cited from earlier work", "key": {"[1]": {"target": "T1, receptors for progestins (Homo sapiens, UniProt P06401)", "T1 sequence (P06401 1-933)": "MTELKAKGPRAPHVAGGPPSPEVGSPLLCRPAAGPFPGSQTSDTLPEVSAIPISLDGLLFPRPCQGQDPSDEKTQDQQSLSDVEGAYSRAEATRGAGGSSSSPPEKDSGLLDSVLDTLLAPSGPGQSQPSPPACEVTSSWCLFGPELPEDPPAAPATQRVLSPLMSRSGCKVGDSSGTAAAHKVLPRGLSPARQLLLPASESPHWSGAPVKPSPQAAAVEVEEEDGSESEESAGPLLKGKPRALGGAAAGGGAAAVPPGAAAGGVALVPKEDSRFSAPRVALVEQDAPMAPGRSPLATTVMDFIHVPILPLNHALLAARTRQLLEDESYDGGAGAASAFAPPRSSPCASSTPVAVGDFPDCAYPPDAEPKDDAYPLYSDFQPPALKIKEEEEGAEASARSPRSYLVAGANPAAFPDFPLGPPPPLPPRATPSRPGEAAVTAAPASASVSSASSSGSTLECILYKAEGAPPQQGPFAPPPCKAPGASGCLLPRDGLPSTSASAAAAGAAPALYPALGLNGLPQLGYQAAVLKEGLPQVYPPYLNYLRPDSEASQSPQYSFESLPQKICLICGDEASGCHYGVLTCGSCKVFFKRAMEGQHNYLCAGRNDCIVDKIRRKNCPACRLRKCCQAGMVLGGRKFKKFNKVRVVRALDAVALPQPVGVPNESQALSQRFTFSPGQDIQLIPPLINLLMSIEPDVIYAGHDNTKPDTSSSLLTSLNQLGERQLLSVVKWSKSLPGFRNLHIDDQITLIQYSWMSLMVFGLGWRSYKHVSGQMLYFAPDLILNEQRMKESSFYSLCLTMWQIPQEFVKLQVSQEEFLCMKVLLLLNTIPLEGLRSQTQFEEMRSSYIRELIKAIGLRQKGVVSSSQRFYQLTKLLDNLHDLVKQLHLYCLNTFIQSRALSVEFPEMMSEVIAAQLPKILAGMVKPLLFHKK"}, "[2]": {"target": "T2, GR (Homo sapiens, UniProt P04150)", "T2 sequence (P04150 1-777)": "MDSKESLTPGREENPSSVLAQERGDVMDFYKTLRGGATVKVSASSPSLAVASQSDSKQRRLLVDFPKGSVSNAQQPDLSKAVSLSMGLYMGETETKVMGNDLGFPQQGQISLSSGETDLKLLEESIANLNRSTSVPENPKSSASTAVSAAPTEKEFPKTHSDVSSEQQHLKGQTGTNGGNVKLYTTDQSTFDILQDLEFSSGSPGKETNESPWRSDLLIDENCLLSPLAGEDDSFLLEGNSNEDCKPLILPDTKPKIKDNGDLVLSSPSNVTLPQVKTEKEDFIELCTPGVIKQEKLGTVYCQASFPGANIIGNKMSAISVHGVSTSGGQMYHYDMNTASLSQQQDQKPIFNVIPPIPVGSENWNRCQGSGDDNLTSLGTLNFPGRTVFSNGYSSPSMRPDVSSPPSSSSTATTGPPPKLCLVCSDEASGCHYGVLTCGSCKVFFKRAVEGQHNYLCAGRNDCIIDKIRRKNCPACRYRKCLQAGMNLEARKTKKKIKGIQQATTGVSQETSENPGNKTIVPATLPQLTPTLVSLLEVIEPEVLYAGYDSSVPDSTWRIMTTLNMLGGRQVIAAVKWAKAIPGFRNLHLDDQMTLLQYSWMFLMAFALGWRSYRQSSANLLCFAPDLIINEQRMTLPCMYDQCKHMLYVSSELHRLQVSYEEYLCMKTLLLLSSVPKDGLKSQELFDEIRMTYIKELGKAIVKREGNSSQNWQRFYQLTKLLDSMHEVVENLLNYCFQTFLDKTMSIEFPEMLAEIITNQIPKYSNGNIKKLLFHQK"}, "[3]": {"system": "receptors for estrogens"}, "[4]": {"target": "T3, receptors for mineralocorticoids (Homo sapiens, UniProt P08235)", "T3 sequence (P08235 1-984)": "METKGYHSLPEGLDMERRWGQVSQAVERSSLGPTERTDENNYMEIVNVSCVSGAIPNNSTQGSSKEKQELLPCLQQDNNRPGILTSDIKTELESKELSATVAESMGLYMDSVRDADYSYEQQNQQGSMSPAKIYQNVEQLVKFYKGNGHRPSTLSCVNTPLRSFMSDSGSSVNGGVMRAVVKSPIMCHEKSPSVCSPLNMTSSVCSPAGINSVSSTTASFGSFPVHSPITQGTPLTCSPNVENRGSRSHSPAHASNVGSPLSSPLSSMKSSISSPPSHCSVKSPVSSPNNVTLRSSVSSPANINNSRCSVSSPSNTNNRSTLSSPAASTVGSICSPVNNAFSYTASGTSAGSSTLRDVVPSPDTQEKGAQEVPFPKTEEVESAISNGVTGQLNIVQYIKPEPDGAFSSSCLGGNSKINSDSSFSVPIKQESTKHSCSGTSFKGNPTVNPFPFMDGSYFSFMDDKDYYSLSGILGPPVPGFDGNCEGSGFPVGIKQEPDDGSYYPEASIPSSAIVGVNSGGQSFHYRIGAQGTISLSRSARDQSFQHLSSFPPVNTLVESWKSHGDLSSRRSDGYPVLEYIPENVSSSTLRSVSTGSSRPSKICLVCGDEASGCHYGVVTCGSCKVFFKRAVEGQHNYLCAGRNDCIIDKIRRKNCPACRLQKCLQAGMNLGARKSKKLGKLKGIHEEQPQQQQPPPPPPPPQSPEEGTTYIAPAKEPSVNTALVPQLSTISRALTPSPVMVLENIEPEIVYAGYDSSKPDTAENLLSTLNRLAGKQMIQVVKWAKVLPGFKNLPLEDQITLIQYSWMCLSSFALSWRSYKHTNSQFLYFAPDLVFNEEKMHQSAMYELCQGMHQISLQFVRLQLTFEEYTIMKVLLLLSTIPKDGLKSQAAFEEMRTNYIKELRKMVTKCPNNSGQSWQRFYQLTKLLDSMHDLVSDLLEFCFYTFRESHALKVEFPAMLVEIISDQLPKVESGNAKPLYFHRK"}, "[5]": {"target": "T4, receptors for androgens (Homo sapiens, UniProt P10275)", "T4 sequence (P10275 1-920)": "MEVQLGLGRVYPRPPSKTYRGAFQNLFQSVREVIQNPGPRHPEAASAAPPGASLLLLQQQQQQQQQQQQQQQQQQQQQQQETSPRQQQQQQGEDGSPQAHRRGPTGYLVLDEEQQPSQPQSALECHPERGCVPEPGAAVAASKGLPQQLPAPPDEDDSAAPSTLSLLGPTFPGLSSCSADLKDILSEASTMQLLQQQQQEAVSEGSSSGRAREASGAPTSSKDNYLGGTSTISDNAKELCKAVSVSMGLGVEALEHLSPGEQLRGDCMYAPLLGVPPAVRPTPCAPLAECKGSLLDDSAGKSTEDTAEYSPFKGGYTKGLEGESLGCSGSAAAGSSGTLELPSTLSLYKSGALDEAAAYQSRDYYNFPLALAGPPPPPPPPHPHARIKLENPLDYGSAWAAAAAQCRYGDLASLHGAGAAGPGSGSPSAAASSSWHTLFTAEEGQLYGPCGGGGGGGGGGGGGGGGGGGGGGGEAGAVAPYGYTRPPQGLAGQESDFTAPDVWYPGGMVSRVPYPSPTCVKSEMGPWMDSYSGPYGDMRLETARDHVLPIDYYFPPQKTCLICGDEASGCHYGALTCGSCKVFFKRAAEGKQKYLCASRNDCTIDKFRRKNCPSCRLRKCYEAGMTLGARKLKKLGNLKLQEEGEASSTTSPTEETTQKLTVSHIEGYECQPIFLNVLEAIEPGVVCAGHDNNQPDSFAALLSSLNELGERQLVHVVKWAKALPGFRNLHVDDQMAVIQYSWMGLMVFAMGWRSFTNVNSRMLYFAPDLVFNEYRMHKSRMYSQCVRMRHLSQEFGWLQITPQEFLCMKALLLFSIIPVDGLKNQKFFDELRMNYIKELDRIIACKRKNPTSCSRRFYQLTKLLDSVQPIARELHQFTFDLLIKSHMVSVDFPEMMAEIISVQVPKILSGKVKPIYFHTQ"}}}
{"smiles": "CN(C)c1ccc(C(c2ccc(N(C)C)cc2)c2cc([N+](=O)[O-])ccc2Cl)cc1", "note": "[[bis(4-N,N-dimethylaminophenyl)(2-chloro-5-nitrophenyl)methane]]", "values": [{"measurement": "Affinity for progestin receptor", "setting": "[1]", "value": "no detectable affinity"}, {"measurement": "Affinity for the GR", "setting": "[2]", "value": "nanomolar affinity"}, {"measurement": "Affinity for estrogen receptor", "setting": "[3]", "value": "no detectable affinity"}, {"measurement": "Affinity for mineralocorticoid receptor", "setting": "[4]", "value": "no detectable affinity"}, {"measurement": "Affinity for androgen receptor", "setting": "[5]", "value": "no detectable affinity"}]}
